Holding throughout (experiment): growth of human tumour cells (NCI), 48 h
In assay [1] the test system is MDA-MB-231 breast.
The subject of assay [2] is 786-0 renal.
Assay [3] has as its system UACC-257 melanoma.
Assay [4] deals with OVCAR-8 ovarian.
The subject of assay [5] is IGROV1 ovarian.
In assay [6] the test system is NCI/ADR-RES ovarian.
In assay [7] the test system is SNB-19 CNS.
For assay [8], the system named is HL-60(TB) leukemia.
Assay [9] concerns HCC-2998 colon.
For assay [10], the system named is SNB-75 CNS.
For assay [11], the system named is SR leukemia.

Several values for one entry are separate records, joined by “and”; a condition that tells them apart may be missing. Equal values may be shown once.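 How tested: cells in 96-well plates exposed to compound for 48 hours at five concentrations. The concentration for 50% growth inhibition is given as GI50. The concentration for full growth arrest is given as TGI.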 Where only a bound is given, the exact number is not on record here.

Regarding `C1CN(c2nc3c(nnc4nc(N5CCOCC5)sc43)s2)CCO1`, the TGI in assay [1], in assay [2], in assay [3], in assay [4], in assay [5] and in assay [6] was more than 100 µM each time. For the same molecule, the TGI in [7] and in assay [8] was more than 100 µM throughout.

Take `CCCCC#C[I+]c1ccccc1`: the TGI was determined as 34.4 µM in assay [9]; 30.1 µM in assay [10]; 28.8 µM in assay [2]; 37.5 µM in assay [11]; 30.8 µM in [3]; 32.5 µM in assay [4]. In addition, the values for the TGI in assay [5], in assay [7] and in [8] were 36.4 µM, 30.9 µM and 40.1 µM, respectively.

On to `N#CCCC1C(C#N)C2(Cl)CC1(Cl)C(Cl)=C2Cl` (configuration not stated), for which the TGI in assay [1], in assay [9], in [10], in [4], in [5] and in assay [6] was more than 10 µM throughout. Moreover, the TGI in [7] and in assay [8] was more than 10 µM throughout.

As to `CC(C)=CCc1c2c(c3occ(-c4ccc(O)cc4)c(=O)c3c1O)CC(C(C)(C)O)O2` (configuration not stated), the TGI in assay [1] came to 27.6 µM; in assay [9] it was 23.2 µM; in [10] it was 31.9 µM; in [2], 35.6 µM; in assay [3], 29.1 µM; in assay [4], 36.2 µM. The TGI in assay [5] stood at 12 µM; in assay [6] it was 40.6 µM; in assay [7] it was 31.3 µM; in assay [8], 34.4 µM.

Consider `O=C1CCCc2cc3c(cc21)CC1(Cc2ccccc2C1)C3`, for which the TGI was 46.6 µM in [1]; 39.3 µM in [9]; 3 µM in assay [10]; 29.6 µM in assay [2]; 20.2 µM in assay [3]; 43.7 µM in assay [4]. Also, the TGI is more than 100 µM in assay [5], more than 100 µM in assay [6] and 5.02 µM in [8].

In the case of `CCOC(=O)CSc1c(C(=O)OCC)c(=O)n(-c2ccccc2)c(=S)n1-c1ccccc1`, the TGI in [10], in assay [2], in [11], in [3], in [4] and in assay [5] was more than 100 µM throughout. For the same molecule, the TGI in [6] is 8.6 µM; in [7], more than 100 µM; in [8], 47.4 µM.

As to `C=CC1(C)CCC2C(=CCC3C2(C)CC(O)C(O)C3(C)COC2OC(C(=O)O)C(O)C(O)C2O)C1` (configuration not stated) (tested in a mixture with another compound), the TGI in assay [1], in assay [9], in [10], in assay [2], in [11] and in assay [3] was more than 100 µM in each case. Also, the TGI in [4], in assay [5] and in assay [7] was more than 100 µM throughout.

With `Cc1cc(Cc2cc(C)c(N)cc2N)c(N)cc1N`, the TGI in [1], in assay [10], in [2], in assay [3], in [4] and in assay [5] was more than 100 µM each time. The TGI in assay [6], in assay [7] and in assay [8] was more than 100 µM each time.

For the molecule `Cc1c(O)c(O)cc[n+]1C1OC(CO)C(O)C1O` (configuration not stated), the TGI in assay [9], in assay [10], in assay [2], in [3], in assay [4] and in [5] was more than 100 µM each time. The TGI in assay [7] is more than 100 µM.

On to `C=C1C(=O)O[C@@H]2C(=O)[C@@H](C)CCC/C(C)=C/CC[C@@]3(C)O[C@@H]3C[C@@H]12`, for which the TGI is more than 100 µM in [1]; more than 100 µM in assay [9]; 56.8 µM in [10]; 43.9 µM in assay [2]; more than 100 µM in assay [3]; more than 100 µM in [4]. In addition, the TGI in assay [5] is 45.7 µM; in assay [6], more than 100 µM; in assay [7], more than 100 µM; in assay [8], 33.4 µM.

With `O=C(NC(=O)c1ccccc1[N+](=O)[O-])Nc1ccc(Oc2ncc(Br)cn2)c(Cl)c1`, the GI50 in assay [9] is 0.0497 µM; in assay [7] it was 0.0693 µM; in assay [8], 0.0273 µM. The TGI in assay [9] was 32.9 µM; in assay [3] it was 0.0434 µM; in assay [4], 0.0736 µM; in assay [6] it was 0.0589 µM; in assay [8], 0.0336 µM and 0.0807 µM.

For `O=C(CCN1CCCCC1)C(=Cc1ccccc1)C(=O)CCN1CCCCC1`, the TGI in [9] is more than 100 µM; in [10] it was more than 100 µM; in assay [3] it was more than 100 µM; in assay [4] it was more than 58.1 µM; in [5] it was more than 100 µM; in [6] it was more than 100 µM. Moreover, the TGI in [7] was more than 100 µM; in assay [8], 6.05 µM and 48 µM. The GI50 was 87.4 µM in assay [3], 2.56 µM in assay [4] and 2.2 µM in assay [8].

For `CCC(C(=O)O)c1ccc(OC)cc1` (configuration not stated), the TGI in [9], in [10], in assay [11], in [3], in [5] and in assay [7] was more than 100 µM in each case. This molecule returned a TGI in assay [8] of more than 100 µM.

For the molecule `COCO[C@@H]1C[C@H]2C(=O)Nc3ccccc3C(=O)N2C1`, the TGI in assay [1], in assay [10], in assay [2], in assay [3], in [4] and in [5] was more than 100 µM each time. The TGI in assay [6] and in [7] was more than 100 µM each time.

Source of the values: PubChem BioAssay (NCI).
